Reference: patent publication US20220175723A1, “METHODS AND COMPOSITIONS RELATING TO INHIBITION OF ALDEHYDE DEHYDROGENASES FOR TREATMENT OF CANCER” (THE PENN STATE RESEARCH FOUNDATION, priority 2019, published 2022)
Like-named read-outs stand apart in the source and are kept apart here.

Experiments:
ALDH1A1 = molecular target: T1, ALDH1A1 (Homo sapiens, UniProt P00352); test: ALDH isoform-specific enzyme assay (NADH absorbance 340 nm); assay type: biochemical; conditions: Study 1; read-out: IC50s ALDH1A1
T1 construct: purchased R & D Systems, Inc, Minneapolis, Minn., USA
T1 sequence (P00352 1-501): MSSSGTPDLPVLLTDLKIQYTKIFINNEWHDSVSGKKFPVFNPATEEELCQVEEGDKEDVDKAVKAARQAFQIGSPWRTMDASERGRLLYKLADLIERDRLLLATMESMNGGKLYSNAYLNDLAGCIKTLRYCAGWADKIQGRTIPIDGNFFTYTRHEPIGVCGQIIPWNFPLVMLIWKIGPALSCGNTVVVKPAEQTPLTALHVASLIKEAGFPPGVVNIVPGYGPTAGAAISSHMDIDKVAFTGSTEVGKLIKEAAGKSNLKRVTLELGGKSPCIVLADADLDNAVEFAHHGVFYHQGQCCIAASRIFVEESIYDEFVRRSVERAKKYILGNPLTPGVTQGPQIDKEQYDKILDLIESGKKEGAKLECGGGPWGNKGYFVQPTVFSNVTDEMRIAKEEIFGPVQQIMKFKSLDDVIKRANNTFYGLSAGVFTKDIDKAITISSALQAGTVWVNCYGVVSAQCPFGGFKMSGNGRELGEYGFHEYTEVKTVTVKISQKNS
Procedure: (§4) ALDH enzyme assays were performed using a kit as described by the kit manufacturer (R & D Systems, Inc, Minneapolis, Minn., USA). Isoform-specific aldehydes were converted to their respective carboxylic acids along with conversion of NAD+ to NADH (absorbance at 340 nm). […] Similarly, 0.5 μg/mL of ALDH2 was used in the reaction with 2 mM of acetaldehyde as the substrate and 0.2 μg/mL of ALDH3A1 was used in the reaction with 1 mM of 4-nitrobenzaldehyde (4-NBA) as the substrate following addition of ALDH inhibitors.
(§5) ALDH1A1, 2 and 3A1 enzyme assays were performed as described by the manufacturer (R & D systems). Isoform-specific aldehydes were converted to their respective carboxylic acids along with the conversion of NAD+ to NADH (absorbance at 340 nm).

ALDH2 = molecular target: T2, ALDH2 (Homo sapiens, UniProt P05091); test: as above; assay type: biochemical; conditions: Study 1; read-out: IC50s ALDH2
T2 construct: purchased R & D Systems, Inc, Minneapolis, Minn., USA
T2 sequence (P05091 18-517): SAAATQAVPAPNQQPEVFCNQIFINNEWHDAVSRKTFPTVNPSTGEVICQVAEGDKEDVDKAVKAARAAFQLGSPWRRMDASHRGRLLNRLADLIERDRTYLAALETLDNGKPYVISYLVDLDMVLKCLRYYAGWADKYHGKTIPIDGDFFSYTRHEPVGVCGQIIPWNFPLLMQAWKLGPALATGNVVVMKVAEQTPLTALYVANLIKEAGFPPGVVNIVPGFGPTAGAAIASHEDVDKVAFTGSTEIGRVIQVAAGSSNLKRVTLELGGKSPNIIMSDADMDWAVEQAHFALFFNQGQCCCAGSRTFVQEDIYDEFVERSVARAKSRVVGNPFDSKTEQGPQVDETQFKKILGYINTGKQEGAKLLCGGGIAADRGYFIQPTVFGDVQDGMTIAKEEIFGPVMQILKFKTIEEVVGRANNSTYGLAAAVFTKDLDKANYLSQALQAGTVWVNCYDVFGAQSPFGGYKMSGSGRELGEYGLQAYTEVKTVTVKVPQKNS
Procedure: as §4, §5

[1] = tested on: total cellular ALDH activity, 1205 Lu cell lysates; test: Total cellular ALDH activity in cell lysates; assay type: biochemical, human; conditions: 1 uM inhibitor, 15 minutes
Excerpt: (§1) The ALDHs reduce ROS, lipid peroxidation and toxic aldehyde accumulation, the latter of which can lead to cell damage and apoptosis as shown in FIG. 6A. Thus, inhibition of total cellular ALDH activity can increase toxic aldehydes, oxidative damage and apoptosis.

[2] = tested on: total cellular ALDH activity, UACC 903 cell lysates; test: Total cellular ALDH activity in cell lysates; assay type: biochemical, human; conditions: 1 uM inhibitor, 15 minutes
Excerpt: as §1

HCT116 cells [3] = test: Apoptosis by Annexin-V/7-AAD with or without NAC; assay type: cell-based, human; parameters: dose or concentration left out as unconfirmed; conditions: vs DMSO or 3a
Procedure: (§2) FIGS. 30A-30F. […] ROS levels were measured using DCFDA dye and compared to DMSO control. Malondialdehyde (MDA) levels were measured in colon cancer cell line HCT116 using thiobarbituric acid and compared to DMSO control (FIG. 30C). Cell survival assay was performed by MTS assay (FIG. 30D), apoptosis by Annexin-V/7-AAD (FIG. 30E) and cell cycle by propidium iodide staining in colon cancer cell line HCT116 (FIG. 30F).
(§3) Further, the effect of the addition of NAC on the antiproliferative and apoptotic activity of ALDH inhibitors was also evaluated.

HCT116 and HT29 cells = test: ROS assay (DCFDA), Study 2, with or without NAC; assay type: cell-based, human
Procedure: ROS activity was measured using DCFDA dye^51. […] Cells were incubated with 10 μM of DCFDA for 1 hour, and fluorescence was measured at 485 nm excitation and 510 nm emission. ROS levels in treated cells were compared to DMSO control.

HCT116 cells [4] = test: Cell survival MTS assay with or without NAC; assay type: cell-based, human
Procedure: as §2, §3

HCT116 cells [5] = test: Cell cycle by propidium iodide staining with or without NAC; assay type: cell-based, human
Procedure: as §2, §3

[6] = Toxicity study, 14 days i.p.; assay type: in vivo, Swiss-Webster mice; conditions: 5 mg/kg/day i.p. for 14 days, vs DMSO
Procedure: To determine the toxicity of 3(h-l), compounds were injected i.p. into Swiss-Webster mice once daily for 14 days (Id.). Animals were monitored for changes in body weight, behavior and physical distress compared to DMSO control.

ALDH3A1 = molecular target: T3, ALDH3A1 (Homo sapiens, UniProt P30838); test: ALDH isoform-specific enzyme assay (NADH absorbance 340 nm); assay type: biochemical
T3 construct: purchased R & D Systems, Inc, Minneapolis, Minn., USA
T3 sequence (P30838 1-453): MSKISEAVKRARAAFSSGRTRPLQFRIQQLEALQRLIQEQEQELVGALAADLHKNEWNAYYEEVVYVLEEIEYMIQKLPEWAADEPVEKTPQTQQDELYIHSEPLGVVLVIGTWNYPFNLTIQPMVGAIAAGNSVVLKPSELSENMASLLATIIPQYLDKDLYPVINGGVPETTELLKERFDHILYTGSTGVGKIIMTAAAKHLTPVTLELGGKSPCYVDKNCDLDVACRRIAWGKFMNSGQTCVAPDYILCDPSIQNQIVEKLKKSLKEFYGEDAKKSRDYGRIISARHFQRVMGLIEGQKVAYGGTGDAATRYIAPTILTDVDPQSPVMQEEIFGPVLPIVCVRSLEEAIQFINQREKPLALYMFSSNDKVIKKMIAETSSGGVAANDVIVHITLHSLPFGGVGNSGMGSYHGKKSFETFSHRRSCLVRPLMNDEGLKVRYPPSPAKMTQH
Procedure: as §4, §5

UACC 903 cells = test: Cell viability MTS assay, UACC 903; assay type: cell-based, human; conditions: 100 μM, 72 hours
Procedure: Cell viability assays of UACC 903 cells transfected with siRNA, and melanoma cell lines (UACC 903, 1205 Lu, C8161.CI9, MelJuSo), FF2441 and NHEM cells treated with ALDH inhibitors were performed. For this, 5,000 cells per well were plated in a 96-well plate and incubated overnight at 37° C. in a 5% CO2 atmosphere. For the siRNA knockdown experiment, cells were incubated for another 72 hours. For the ALDH inhibitor experiments, cells were treated with agents at various concentrations and incubated for 72 hours. 20 μL of MTS reagent was then added into each well and formation of tetrazolium was measured by absorbance after 1 hour at 492 nm. IC50 values or % cells for each experimental group were measured in three independent experiments using GraphPad Prism version 7.04 (GraphPad Software, La Jolla, Calif.).
Briefly, 3,000 cells per well were plated in a 96-well plate and incubated overnight at 37° C. in a 5% CO2 atmosphere. […] 20 μL of MTS reagent was then added into each well and formation of tetrazolium was measured by absorbance after 1 hour at 492 nm. IC50 values for each experimental group were measured in 3 independent experiments using GraphPad Prism version 7.04 (GraphPad Software, La Jolla, Calif.).

[7] = Study 1, read-out: IC50s ALDH3A1

SMILES | IC50 (ALDH1A1) | IC50 (ALDH2) | reduction of total cellular ALDH activity, 1205 Lu [1] | reduction of total cellular ALDH activity, UACC 903 [2] | IC50 (ALDH3A1; [7]) | further results
Cc1nc2ccccc2n1S(=O)(=O)c1ccc(F)cc1 [CB7] | 139 µM | 144 µM | – | – | – | –
CCOC(=O)CSc1nc2c(sc3ccccc32)c(=O)n1CCCN1CCCC1 [CM037] | – | – | significantly reduced | significantly reduced | – | –
Br.N=C(N)SCc1ccc(CN2C(=O)C(=O)c3cc(C(F)(F)F)ccc32)cc1 [Compound 3h, 2-[4-(2,3-Dioxo-5-trifluoromethyl-2,3-dihydroindol-1-ylmethyl)benzyl]isothiourea hydrobromide] | – | – | – | – | – | percentage of cells both Annexin-V and 7-AAD positive (HCT116 cells [3]): significantly higher; ROS levels (HCT116 and HT29 cells; 5 μM, 24 hours, vs DMSO): significantly increased; ROS-inducing activity on addition of NAC (HCT116 and HT29 cells; with N-Acetyl Cysteine (NAC)): abrogated; increase of cell killing IC50 by addition of NAC (HCT116 cells [4]): 6 fold; cell cycle effect (HCT116 cells [5]; HCT116): G2/M arrest; cell cycle effect on addition of NAC (HCT116 cells [5]; HCT116, with NAC): reversed; weight loss [6]: no significant weight loss
CCN(CC)c1ccc(C=O)cc1 [DEAB] | – | – | significantly reduced | significantly reduced | 15.1 µM | IC50 (ALDH3A1; Study 1, text, read-out: IC50 ALDH3A1): 15.1 µM; reduction of UACC 903 cell survival (UACC 903 cells): 30%
O=C1Nc2ccccc2C1=O [Isatin] | 15.6 µM | 169 µM | ineffective | ineffective | 5.05 µM | –
